This note sets out measurements from patent US20250163104A1, “MACROCYCLIC IMMUNOMODULATORS” (priority 2021, published 2025).

In general, IC50 refers to the concentration that inhibits the measured activity by half.

Where a SMILES comes first, the peptide text is derived from it. Bridges are numbered along the chain shown (N, C = ends). [ ]: non-standard residue; d: D form. The star is where a group is joined. ξ: configuration not given here. Phe(4-COOH) = N[C@@H](Cc1ccc(C(=O)O)cc1)C(=O)O; Bip = N[C@@H](Cc1ccc(-c2ccccc2)cc1)C(=O)O; Phe(3-Me) = Cc1cccc(C[C@H](N)C(=O)O)c1; Val(3-OH) = CC(C)(O)[C@H](N)C(=O)O; 3Pal = N[C@@H](Cc1cccnc1)C(=O)O; 4Pal = N[C@@H](Cc1ccncc1)C(=O)O; 2Thi = N[C@@H](Cc1cccs1)C(=O)O; Cha = N[C@@H](CC1CCCCC1)C(=O)O; Cit = NC(=O)NCCC[C@H](N)C(=O)O; Thr(3ξ) = CC(O)[C@H](N)C(=O)O; Carboxymethyl = O=C(O)C*; Orn = NCCC[C@H](N)C(=O)O; Pra = C#CC[C@H](N)C(=O)O; Dab = NCC[C@H](N)C(=O)O; Nva = CCC[C@H](N)C(=O)O; Dap = NC[C@H](N)C(=O)O; Propargyl = C#CC*

For this assay, the target named is T1, human PD-1 / PD-L1-Ig binding on Jurkat cell line over-expressing human PD-1 (Jurkat-PD-1) (Homo sapiens, UniProt Q15116).
T1 construct: expressed in transfected cells; host or cells: Jurkat
Kind of assay: Jurkat-PD-1 Cell Binding High-Content Screening Assay (CBA). Type of assay: cell-based. The settings on record: Jurkat-PD-1 cells, PE-labeled PD-L1-Ig 20 nM final; read-out: Jurkat HPD1_PDL1 IC50. The procedure, abridged: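 PE-PD-L1-Ig 20 nM final; cells in DMEM/10% FCS; cpd pre-incubation 2 h, 37° C; ligand 1 h; PFA fix + Hoechst 33342; high-content imaging read-out.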

T1 sequence (Q15116 25-288): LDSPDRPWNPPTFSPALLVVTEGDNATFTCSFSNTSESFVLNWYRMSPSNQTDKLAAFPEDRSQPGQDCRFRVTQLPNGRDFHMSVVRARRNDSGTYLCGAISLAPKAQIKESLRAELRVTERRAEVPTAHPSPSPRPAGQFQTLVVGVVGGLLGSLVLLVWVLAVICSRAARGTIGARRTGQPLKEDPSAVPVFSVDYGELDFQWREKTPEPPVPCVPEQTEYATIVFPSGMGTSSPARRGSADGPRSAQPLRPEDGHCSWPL

Turning to `Cc1cccc(C[C@@H]2NC(=O)[C@H](CC(=O)O)NC(=O)[C@H](Cc3ccc(OCC(=O)O)cc3)NC(=O)[C@H](CN)NC(=O)CSC[C@@H](C(N)=O)NC(=O)[C@H](CC(=O)O)NC(=O)[C@H](C(C)C)NC(=O)[C@H](CC3CCCCC3)NC(=O)[C@H](CCN)NC(=O)[C@@H](CC(C)C)NC(=O)[C@H](CCCN)NC(=O)[C@H](Cc3ccc(OCC(=O)O)cc3)NC(=O)[C@H](Cc3ccc(-c4ccccc4)cc3)NC(=O)[C@H](Cc3ccc(OCC(=O)O)cc3)NC2=O)c1` [Compound 1781] ({CH2CO}-[Dap]Y(Carboxymethyl)D[Phe(3-Me)]Y(Carboxymethyl)[Bip]Y(Carboxymethyl)[Orn][dL][Dab][Cha]VDC-NH2; thioether N-14), the IC50 turned out to be 14.2 nM.

Take `CC(C)C[C@H]1NC(=O)[C@H](CCCN)NC(=O)[C@H](CCCNC(N)=O)NC(=O)[C@H](Cc2ccc(-c3ccccc3)cc2)NC(=O)[C@H](C(C)C)NC(=O)[C@H](Cc2c[nH]c3ccccc23)NC(=O)[C@H](CC(=O)O)NC(=O)[C@H](Cc2cccs2)NC(=O)[C@H](CN)NC(=O)CSC[C@@H](C(=O)N[C@@H](C)C(N)=O)NC(=O)[C@H]([C@@H](C)O)NC(=O)[C@H](C(C)C)NC(=O)[C@H](CC2CCCCC2)NC(=O)[C@H](CCN)NC1=O` [Compound 2128]: the IC50 is 7.5 nM.

For the compound `COc1ccc(C[C@@H]2NC(=O)[C@H](C(C)O)NC(=O)CSC[C@@H](C(=O)N[C@@H](CCN)C(N)=O)NC(=O)[C@H](Cc3c[nH]cn3)NC(=O)[C@H](C(C)(C)O)NC(=O)[C@H](CC3CCCCC3)NC(=O)[C@H](CCN)NC(=O)[C@@H](CC(C)C)NC(=O)[C@H](CCCN)NC(=O)[C@H](Cc3ccc(OCC(=O)O)cc3)NC(=O)[C@H](Cc3ccc(-c4ccccc4)cc3)NC(=O)[C@H](Cc3ccc(OCC(=O)O)cc3)NC(=O)[C@H](Cc3cccc(C)c3)NC(=O)[C@H](CC(=O)O)NC2=O)cc1` (stereo partly drawn) [Compound 2674] ({CH2CO}-[Thr(3ξ)]Y(Me)D[Phe(3-Me)]Y(Carboxymethyl)[Bip]Y(Carboxymethyl)[Orn][dL][Dab][Cha][Val(3-OH)]HC[Dab]-NH2; thioether N-14), the half-inhibitory concentration (IC50) worked out at 6.2 nM.

Turning to `Cc1cccc(C[C@@H]2NC(=O)[C@H](CC(=O)O)NC(=O)[C@H](Cc3ccc(C(=O)O)cc3)NC(=O)[C@H](Cc3ccncc3)NC(=O)CSC[C@@H](C(=O)N[C@H](CC(N)=O)C(N)=O)NC(=O)[C@H](CO)NC(=O)[C@H](C(C)C)NC(=O)[C@H](CC3CCCCC3)NC(=O)[C@H](CCN)NC(=O)[C@@H](CC(C)C)NC(=O)[C@H](CCCN)NC(=O)[C@H](Cc3ccc(O)cc3)NC(=O)[C@H](Cc3ccc(-c4ccccc4)cc3)NC(=O)[C@H](C(C)C)NC2=O)c1` [Compound 2291] ({CH2CO}-[4Pal][Phe(4-COOH)]D[Phe(3-Me)]V[Bip]Y[Orn][dL][Dab][Cha]VSC[dN]-NH2; thioether N-14), the IC50 was 10.6 nM.

For `C#CCOc1ccc(C[C@@H]2NC(=O)[C@H](Cc3ccc(-c4ccccc4)cc3)NC(=O)[C@H](Cc3ccc(C(=O)O)cc3)NC(=O)[C@H](Cc3cccc(C)c3)NC(=O)[C@H](CC(=O)O)NC(=O)[C@H](Cc3ccc(C(=O)O)cc3)NC(=O)[C@H](CCC)NC(=O)CSC[C@@H](C(=O)N[C@@H](CCN)C(N)=O)NC(=O)[C@H](CCC(=O)O)NC(=O)[C@H](C(C)C)NC(=O)[C@H](CC3CCCCC3)NC(=O)[C@H](CCN)NC(=O)[C@@H](CC(C)C)NC(=O)[C@H](CCCN)NC2=O)cc1` [Compound 1831] ({CH2CO}-[Nva][Phe(4-COOH)]D[Phe(3-Me)][Phe(4-COOH)][Bip]Y(Propargyl)[Orn][dL][Dab][Cha]VEC[Dab]-NH2; thioether N-14), the IC50 came to 4.8 nM.

For `C#CC[C@H](NC(=O)[C@H](C)NC(=O)[C@@H]1CSCC(=O)N[C@@H](CCN)C(=O)N[C@@H](Cc2ccc(OCC(=O)O)cc2)C(=O)N[C@@H](CC(=O)O)C(=O)N[C@@H](Cc2cccc(C)c2)C(=O)N[C@@H](Cc2ccc(OCC(=O)O)cc2)C(=O)N[C@@H](Cc2ccc(-c3ccccc3)cc2)C(=O)N[C@@H](Cc2ccc(OCC(=O)O)cc2)C(=O)N[C@@H](CCCN)C(=O)N[C@H](CC(C)C)C(=O)N[C@@H](CCN)C(=O)N[C@@H](CC2CCCCC2)C(=O)N[C@@H](C(C)(C)O)C(=O)N[C@@H](CCC)C(=O)N1)C(=O)O` [Compound 2697] ({CH2CO}-[Dab]Y(Carboxymethyl)D[Phe(3-Me)]Y(Carboxymethyl)[Bip]Y(Carboxymethyl)[Orn][dL][Dab][Cha][Val(3-OH)][Nva]CA[Pra]-OH; thioether N-14), the IC50 worked out at 26.2 nM.

Take `CC(C)C[C@H]1NC(=O)[C@H](CN)NC(=O)[C@H](C(C)C)NC(=O)[C@H](Cc2ccc(-c3ccccc3)cc2)NC(=O)[C@H](C(C)C)NC(=O)[C@H](Cc2c[nH]c3ccccc23)NC(=O)[C@H](CC(=O)O)NC(=O)[C@H](Cc2ccc(O)cc2)NC(=O)[C@H](Cc2ccccc2)NC(=O)CSC[C@@H](C(=O)NCC(N)=O)NC(=O)[C@H](CO)NC(=O)[C@H](C(C)C)NC(=O)[C@H](CC2CCCCC2)NC(=O)[C@H](CC(N)=O)NC1=O` [Compound 1412] ({CH2CO}-FYDWV[Bip]V[Dap][dL]N[Cha]VSCG-NH2; thioether N-14): the IC50 worked out at 26.9 nM.

As for `C#CCOc1ccc(C[C@@H]2NC(=O)[C@H](Cc3cccc(C)c3)NC(=O)[C@H](CC(=O)O)NC(=O)[C@H](Cc3ccc(C(=O)O)cc3)NC(=O)[C@H](CCC)NC(=O)CSC[C@@H](C(=O)N[C@@H](CCN)C(N)=O)NC(=O)[C@H](CCC(=O)O)NC(=O)[C@H](C(C)C)NC(=O)[C@H](CC3CCCCC3)NC(=O)[C@H](CCN)NC(=O)[C@@H](CC(C)C)NC(=O)[C@H](CCCN)NC(=O)[C@H](Cc3ccc(C(=O)O)cc3)NC(=O)[C@H](Cc3ccc(-c4ccccc4)cc3)NC2=O)cc1` [Compound 1830] ({CH2CO}-[Nva][Phe(4-COOH)]D[Phe(3-Me)]Y(Propargyl)[Bip][Phe(4-COOH)][Orn][dL][Dab][Cha]VEC[Dab]-NH2; thioether N-14), the half-maximal inhibitory concentration (IC50) was 3.6 nM.

Regarding `CC(C)C[C@H]1NC(=O)[C@H](CCCN)NC(=O)[C@H](CCC(=O)O)NC(=O)[C@H](Cc2ccc(-c3ccccc3)cc2)NC(=O)[C@H](C(C)C)NC(=O)[C@H](Cc2c[nH]c3ccccc23)NC(=O)[C@H](CC(=O)O)NC(=O)[C@H](Cc2ccncc2)NC(=O)[C@H](CC(N)=O)NC(=O)CSC[C@@H](C(=O)N[C@@H](C)C(N)=O)NC(=O)[C@H]([C@@H](C)O)NC(=O)[C@H](C(C)C)NC(=O)[C@H](CC2CCCCC2)NC(=O)[C@H](CCN)NC1=O` [Compound 2195] ({CH2CO}-N[4Pal]DWV[Bip]E[Orn][dL][Dab][Cha]VTCA-NH2; thioether N-14), the half-maximal inhibitory concentration (IC50) came to 22.8 nM.

Consider `CC(C)C[C@H]1NC(=O)[C@H](CCCN)NC(=O)[C@H](CCCNC(N)=O)NC(=O)[C@H](Cc2ccc(-c3ccccc3)cc2)NC(=O)[C@H](C(C)C)NC(=O)[C@H](Cc2c[nH]c3ccccc23)NC(=O)[C@H](CC(=O)O)NC(=O)[C@H](Cc2ccc(C(=O)c3ccccc3)cc2)NC(=O)[C@H](CN)NC(=O)CSC[C@@H](C(=O)N[C@@H](C)C(N)=O)NC(=O)[C@H]([C@@H](C)O)NC(=O)[C@H](C(C)C)NC(=O)[C@H](CC2CCCCC2)NC(=O)[C@H](CCN)NC1=O` [Compound 2132], for which the IC50 came out at 65.2 nM.

`Cc1cccc(C[C@@H]2NC(=O)[C@H](CC(=O)O)NC(=O)[C@H](Cc3ccc(OCC(=O)O)cc3)NC(=O)[C@H](Cc3cccs3)NC(=O)CSC[C@@H](C(=O)N[C@@H](CCN)C(N)=O)NC(=O)[C@H]([C@@H](C)O)NC(=O)[C@H](C(C)(C)O)NC(=O)[C@H](CC3CCCCC3)NC(=O)[C@H](CCN)NC(=O)[C@@H](CC(C)C)NC(=O)[C@H](CCCN)NC(=O)[C@H](Cc3ccc(OCC(=O)O)cc3)NC(=O)[C@H](Cc3ccc(-c4ccccc4)cc3)NC(=O)[C@H](Cc3ccc(OCC(=O)O)cc3)NC2=O)c1` [Compound 2067] ({CH2CO}-[2Thi]Y(Carboxymethyl)D[Phe(3-Me)]Y(Carboxymethyl)[Bip]Y(Carboxymethyl)[Orn][dL][Dab][Cha][Val(3-OH)]TC[Dab]-NH2; thioether N-14): the IC50 is 6.3 nM.

With `Cc1cccc(C[C@@H]2NC(=O)[C@H](CC(=O)O)NC(=O)[C@H](Cc3ccncc3)NC(=O)[C@H](Cc3ccc(OCC(=O)O)cc3)NC(=O)CSC[C@@H](C(=O)N[C@@H](C)C(N)=O)NC(=O)[C@H]([C@@H](C)O)NC(=O)[C@H](C(C)C)NC(=O)[C@H](CC3CCCCC3)NC(=O)[C@H](CCN)NC(=O)[C@@H](Cc3ccccc3)NC(=O)[C@H](CCCN)NC(=O)[C@H](CCC(=O)O)NC(=O)[C@H](Cc3ccc(-c4ccccc4)cc3)NC(=O)[C@H](C(C)C)NC2=O)c1` [Compound 1430] ({CH2CO}-Y(Carboxymethyl)[4Pal]D[Phe(3-Me)]V[Bip]E[Orn][dF][Dab][Cha]VTCA-NH2; thioether N-14), the IC50 amounted to 10.8 nM.

Turning to `Cc1cccc(C[C@@H]2NC(=O)[C@H](CC(=O)O)NC(=O)[C@H](Cc3ccc(C(=O)O)cc3)NC(=O)[C@H](Cc3ccncc3)NC(=O)CSC[C@@H](C(=O)N[C@@H](C)C(N)=O)NC(=O)[C@H]([C@@H](C)O)NC(=O)[C@H](C(C)C)NC(=O)[C@H](CC3CCCCC3)NC(=O)[C@H](CCN)NC(=O)[C@@H](CC(C)C)NC(=O)[C@H](CCCN)NC(=O)[C@H](CC3CCCCC3)NC(=O)[C@H](Cc3ccc(-c4ccccc4)cc3)NC(=O)[C@H](C(C)C)NC2=O)c1` [Compound 1621], the IC50 was determined as 36.7 nM.

Turning to `Cc1cccc(C[C@@H]2NC(=O)[C@H](CC(=O)O)NC(=O)[C@H](Cc3ccc(OCC(=O)O)cc3)NC(=O)[C@H](Cc3cccnc3)NC(=O)CSC[C@@H](C(=O)N[C@@H](C)C(N)=O)NC(=O)[C@H]([C@@H](C)O)NC(=O)[C@H](C(C)C)NC(=O)[C@H](CC(C)C)NC(=O)[C@H](CCN)NC(=O)[C@@H](CC(C)C)NC(=O)[C@H](CCCN)NC(=O)[C@H](CCCNC(N)=O)NC(=O)[C@H](Cc3ccc(-c4ccccc4)cc3)NC(=O)[C@H](C(C)C)NC2=O)c1` [Compound 1225] ({CH2CO}-[3Pal]Y(Carboxymethyl)D[Phe(3-Me)]V[Bip][Cit][Orn][dL][Dab]LVTCA-NH2; thioether N-14), the IC50 is 6.2 nM.
